The results in this text go back to US6692880B2, “Electrophotographic toner with stable triboelectric properties” (Heidelberger Druckmaschinen AG, priority 2001, dated 2004).

The nature of the series: pKa values measured by titrimetry. Type of series: physicochemical. The note with it: (a) values measured by titrimetry; read-out: pKa 1. From the text: Any acidic material having a pKa in the range of from about 2 to about 8 can be used as the first charge control agent. Acidic materials with pKa values of from 3 to 7 are particularly preferred. Acidic materials preferably contain a labile proton, such as a carboxylic, phenolic or sulfonic acid. More broadly an acid also includes compounds within the definition as proposed by G. N. Lewis, that is an acid is any material capable of accepting an electron pair from a donor molecule. The term pKa is defined as
where Ka is an inherent molecular property of an acidic compound and is called the acid dissociation constant. Ka is defined by the following equation; [formula]
In a practical sense the lower the pKa value the stronger the acid. Acids useful in this invention may have more than one acid function per molecule such as di- and tri-carboxylic or di- and tri-sulfonic acids. Further, multiple types of acid functional groups may be present in the useful molecule for example as in p-carboxybenzenesulfonic acid. One skilled in the art can readily propose other such acids based on the foregoing definitions.

For `CC1=NN(c2ccccc2)C(=O)C1` [MPP, 2,4-dihydro-5-methyl-2-phenyl-3H-pyrazol-3-one], the pKa turned out to be 6.6.
In the case of `CCOC(=O)/C=C/C(=O)O` [fumaric acid monoethyl ester] it was 3.5.

By pKa is commonly meant the pH at which an ionisable group is half protonated.
